Laboratory results taken from paper PMC10938454, “Preparation, Characterization, Antioxidant Activities, and Determination of Anti-Alzheimer Effects of PLGA-Based DDSs Containing Ferulic Acid” (ACS Omega, 2024).

Key:
[1] = biological target: T1, BuChE (butyrylcholinesterase) (Equus caballus, UniProt P81908); assay: Ellman assay, […] nm, microplate; type: biochemical; settings: read-out: IC50 (μg.mL^-1) (converted)
T1 construct: gene BCHE; native enzyme isolated from horse serum

[2] = biological target: T2, AChE (acetylcholinesterase) (Electrophorus electricus, UniProt O42275); assay: Ellman assay, […] nm, microplate; type: biochemical; settings: read-out: IC50 (μg.mL^-1) (converted)
T2 construct: native enzyme isolated from electric eel, type VI-S (printed 'type VIS')
T2 sequence (O42275 24-633): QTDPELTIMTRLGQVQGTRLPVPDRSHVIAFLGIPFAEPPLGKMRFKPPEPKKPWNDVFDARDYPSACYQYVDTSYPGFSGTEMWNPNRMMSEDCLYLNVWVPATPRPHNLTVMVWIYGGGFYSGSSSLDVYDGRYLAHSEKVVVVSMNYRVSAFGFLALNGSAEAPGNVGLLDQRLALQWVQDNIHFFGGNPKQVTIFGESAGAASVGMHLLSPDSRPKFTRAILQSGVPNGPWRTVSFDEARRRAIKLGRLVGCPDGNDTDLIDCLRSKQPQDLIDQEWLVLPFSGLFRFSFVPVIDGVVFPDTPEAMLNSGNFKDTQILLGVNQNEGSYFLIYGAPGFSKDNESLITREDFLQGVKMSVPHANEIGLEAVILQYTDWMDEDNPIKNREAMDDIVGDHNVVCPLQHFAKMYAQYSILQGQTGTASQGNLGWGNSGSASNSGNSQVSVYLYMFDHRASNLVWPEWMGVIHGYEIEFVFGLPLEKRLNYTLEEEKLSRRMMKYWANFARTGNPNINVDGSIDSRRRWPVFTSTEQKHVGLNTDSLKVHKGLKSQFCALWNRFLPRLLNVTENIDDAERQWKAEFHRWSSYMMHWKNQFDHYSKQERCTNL

T1 sequence (P81908 whole entry): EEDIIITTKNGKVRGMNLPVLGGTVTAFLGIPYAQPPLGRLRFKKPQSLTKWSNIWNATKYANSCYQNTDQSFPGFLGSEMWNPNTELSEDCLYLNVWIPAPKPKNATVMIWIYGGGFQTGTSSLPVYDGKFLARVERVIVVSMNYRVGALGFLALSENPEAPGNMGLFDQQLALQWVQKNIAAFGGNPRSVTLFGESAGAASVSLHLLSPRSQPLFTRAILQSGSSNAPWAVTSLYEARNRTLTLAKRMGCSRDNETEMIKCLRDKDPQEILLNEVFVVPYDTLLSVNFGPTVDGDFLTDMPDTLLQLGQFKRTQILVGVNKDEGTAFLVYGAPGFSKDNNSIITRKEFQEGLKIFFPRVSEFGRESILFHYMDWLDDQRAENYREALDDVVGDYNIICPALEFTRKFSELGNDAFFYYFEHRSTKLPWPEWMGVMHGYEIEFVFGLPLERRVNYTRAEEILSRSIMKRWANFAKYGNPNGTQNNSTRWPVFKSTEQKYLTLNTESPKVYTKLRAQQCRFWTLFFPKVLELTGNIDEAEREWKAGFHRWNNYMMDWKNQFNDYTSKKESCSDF

**Q.** Which IC50 [1] does the source give for `COc1cc(/C=C/C(=O)O)ccc1O` [ferulic acid] here?
**A.** Its IC50 is 2680 µM.

**Q.** And the IC50 [2]?
**A.** Its IC50 is 2100 µM.
